Experiments:
[1] = system: rats; experiment: Rat Locomotor Activity; format: in vivo; conditions: PO
Experimental: In order to ensure effects of the compounds on immobility time were not related to a general stimulant effect on baseline motor activity, locomotor activity was assessed using photocell monitored cages (Med-Associates Inc.). Each test chamber was equipped with infrared photocell beams to measure movement of the animals. Horizontal and vertical activity were measured.
Rats or mice were pretreated with vehicle or test compounds and placed back in home cage, following which they were individually placed in locomotor cages and activity was monitored in 1-5 minute intervals for intervals up to 60 min.
Data were analyzed by one way analysis of variance (ANOVA) followed by post-hoc comparisons where appropriate. An effect was considered significant if p<0.05. Data are represented as the mean and standard error to the mean (s.e.m).

[2] = molecular target: T1, Norepinephrine Transporter (NET) (Mus musculus, UniProt O55192); experiment: ex vivo [3H] nisoxetine binding to NET sites in mouse brain; conditions: mice, 60 minutes after treatment
T1 construct: Cortical membranes (400 μL; equivalent to 6.0 mg wet weight of tissue/tube); from tissue; host or cells: frontal cortex of C57BL/6 mice
T1 sequence (O55192 whole entry): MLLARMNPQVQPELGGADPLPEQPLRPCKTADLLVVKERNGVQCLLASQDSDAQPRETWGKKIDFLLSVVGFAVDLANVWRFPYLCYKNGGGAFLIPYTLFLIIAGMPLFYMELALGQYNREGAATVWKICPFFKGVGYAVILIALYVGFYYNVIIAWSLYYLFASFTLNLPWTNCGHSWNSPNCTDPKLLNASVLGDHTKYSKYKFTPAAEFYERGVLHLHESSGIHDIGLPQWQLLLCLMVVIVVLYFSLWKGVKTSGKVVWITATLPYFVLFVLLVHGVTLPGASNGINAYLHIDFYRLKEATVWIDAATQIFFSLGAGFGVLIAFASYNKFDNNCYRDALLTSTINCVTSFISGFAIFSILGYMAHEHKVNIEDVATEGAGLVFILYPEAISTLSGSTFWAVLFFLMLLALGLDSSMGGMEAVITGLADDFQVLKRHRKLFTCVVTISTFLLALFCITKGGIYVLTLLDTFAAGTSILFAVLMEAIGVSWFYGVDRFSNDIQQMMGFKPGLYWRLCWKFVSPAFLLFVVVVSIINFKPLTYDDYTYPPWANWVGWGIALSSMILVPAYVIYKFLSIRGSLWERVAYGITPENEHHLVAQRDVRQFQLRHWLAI
Experimental: Receptor occupancy of central noradrenaline (NA), 5-HT and dopamine (DA) transporter sites following peripheral administration of compounds was determined using [^3H] nisoxetine, [^3H] citalopram and [^3H] WIN 35428 binding, respectively. Liquid scintillation counting was used to quantify the radioactivity.
C57BL/6 mice (25-30 g) were dosed orally with either vehicle or compound at 4 dose levels. Mice were sacrificed 60 minutes after treatment. Whole brains were removed and cortex and striata dissected out before being frozen on dry ice. The brain tissue was stored at −20° C. until the day of the assay. The cortex from each hemisphere was frozen separately. One was used to determine occupancy of NA transporter sites and the other occupancy of 5-HT transporter sites. Striatum was used to determine occupancy of DA transporter sites.
Frontal cortex from each hemisphere or striata was homogenized individually in ice-cold assay buffer using a tight fitting glass/Teflon homogenizer and used immediately in the binding assay.
Cortical membranes (400 μL; equivalent to 6.0 mg wet weight of tissue/tube) were incubated with 50 μL of [^3H] nisoxetine at a single concentration of 0.6 nM and either 50 μL of buffer (total binding) or 50 μL of mazindol (1 μM; non-specific binding) for 4 h at 4° C. For each animal, three tubes were used for the determination of total binding and three tubes were used for the determination of non-specific binding.
Membrane bound radioactivity was recovered by filtration under vacuum through Skatron 11731 filters, presoaked in 0.5% PEI, using a Skatron cell harvester. Filters were rapidly washed with ice-cold phosphate buffer and radioactivity (dpm) was determined by liquid scintillation counting (1 mL Packard MV Gold scintillator).
A value for specific binding (dpm) was generated by the subtraction of mean non-specific binding (dpm) from mean total binding (dpm) for each animal. Data are presented as mean specific binding (dpm) and as a percentage of the vehicle-treated control taken as 100%.

[3] = system: rats; experiment: Rat Forced Swim Test; format: in vivo; conditions: PO
Description: The method, which detects antidepressant activity, followed that described by Porsolt et al (Eur. J. Pharmacol., 47: 379-391 (1978)) and modified by Lucki et al. (Psychopharm, 121: 66-72 (1995)). Rats forced to swim in a situation from which they cannot escape rapidly become immobile. Antidepressants decrease the duration of immobility. […] Selective NE reuptake inhibitors decrease immobility by increasing climbing behaviors whereas selective 5-HT reuptake inhibitors decrease immobility by increasing swimming behaviors.
Rats were individually placed in a cylinder (Height=40 cm; Diameter=20 cm) containing 22 cm water (25° C.) for 15 minutes on the first day of the experiment (Session 1) and were then put back in the water 24 hours later for a 5 minute test (Session 2). The sessions were videotaped and duration of immobility as well as swimming and climbing behaviors during the 5 minute test were measured. Twelve rats were tested in each group. The test was performed blind. Compounds were typically evaluated at 3 doses (1-30 mg/kg), administered orally 2 times: 24 hours and 30-60 minutes before the test (Session 2), and compared with a vehicle control group. Desipramine (20 mg/kg i.p.), administered under the same experimental conditions, was used as the positive reference substance.
Data were analyzed by one way analysis of variance (ANOVA) followed by post-hoc comparisons where appropriate. An effect will be considered significant if p<0.05. Data are represented as the mean and standard error to the mean (s.e.m.).

[4] = system: reserpinized rat; experiment: reserpine-treated rat Parkinson's disease model; format: in vivo
Experimental: The effects of compound 4 alone and in combination with L-DOPA were evaluated in the reserpine-treated rat Parkinson's disease model. The method, which detects antiparkinson activity (reversal of motor deficits and akinesia), follows that described by Johnston et al. (Exp Neurol, 191, 243-250, 2005). Eighteen hours prior to behavioural testing, rats were lightly anaesthetized with isoflurane and reserpine (3 mg/kg, sc) was injected along with saline (50 ml/kg) to prevent dehydration.
Accelerating Rotarod: Performance on an accelerating rotarod was assessed using a 4-station rat rotarod (MedAssociates, USA). The speed of rotation of the rotarod was increased from 3.5 to 35 rpm over 5 minutes and the time for which the animal remained on the rod determined as the mean of three trials.
Catalepsy Test: Catalepsy was assessed by placing the rat's forepaws on top of a horizontal wooden rod suspended 6 cm above the bench surface. Time taken to remove both paws from the rod was recorded, up to a maximum of 120 seconds. Three trials per animal were conducted.
Open Field: Activity in an open field arena was assessed using automated activity monitors (Linton Instrumentation, UK). Rats were placed in the activity boxes and locomotor activity was recorded over a 240 minute period.
Drug Administration: For the monotherapy experiment, the effects of 5 different treatments were assessed: 1) vehicle (sterile water, PO), 2) 3 mg/kg compound 4 (PO), 3) 10 mg/kg compound 4 (PO), 4) 30 mg/kg compound 4 and 5) 80 mg/kg (IP) of the positive reference substance, L-DOPA (80 mg/kg). In the combination experiment, 5 different treatments were assessed: 1) compound 4 vehicle (PO)+L-DOPA vehicle (IP), 2) compound 4 (10 mg/kg, PO)+L-DOPA vehicle (IP), 3) compound 4 vehicle (PO)+L-DOPA (30 mg/kg, IP), 4) compound 4 (10 mg/kg, PO)+L-DOPA (30 mg/kg, IP) and 5) compound 4 vehicle (PO)+L-DOPA (80 mg/kg, IP). Treatments were given in a randomized fashion and each animal received all treatment conditions. Compound 4 was administered 60 minutes prior to behavioral assessment and L-DOPA was administered immediately prior to behavioral testing.

Compound	Rat Locomotor Activity Total Distance Traveled ± S.E.M. ([1]; 1 mg/kg)	Rat Locomotor Activity Total Distance Traveled ± S.E.M. ([1]; 3 mg/kg)	Rat Locomotor Activity Total Distance Traveled ± S.E.M. ([1]; 10 mg/kg)	% Transporter Occupancy, NET ([2]; 1 mg/kg PO) [%]	% Transporter Occupancy, NET ([2]; 3 mg/kg PO) [%]	% Transporter Occupancy, NET ([2]; 10 mg/kg PO) [%]	% Transporter Occupancy, NET ([2]; 30 mg/kg PO) [%]	Rat Forced Swim (Means ± S.E.M.) Climbing ([3]; 1 mg/kg)	Rat Forced Swim (Means ± S.E.M.) Immobility ([3]; 1 mg/kg)	Rat Forced Swim (Means ± S.E.M.) Swimming ([3]; 1 mg/kg)	Rat Forced Swim (Means ± S.E.M.) Climbing ([3]; 3 mg/kg)	Rat Forced Swim (Means ± S.E.M.) Immobility ([3]; 3 mg/kg)	Rat Forced Swim (Means ± S.E.M.) Swimming ([3]; 3 mg/kg)	Rat Forced Swim (Means ± S.E.M.) Climbing ([3]; 10 mg/kg)	Rat Forced Swim (Means ± S.E.M.) Immobility ([3]; 10 mg/kg)	Rat Forced Swim (Means ± S.E.M.) Swimming ([3]; 10 mg/kg)	effects of combination with low dose L-DOPA compared with higher L-DOPA dose (80 mg/kg), rotarod ([4]; 10 mg/kg, PO + L-DOPA 30 mg/kg, FIG. 5)	baseline locomotor activity (open field) performance ([4]; alone, 3-30 mg/kg, PO, FIG. 2)	rotarod performance ([4]; alone, 3-30 mg/kg, PO, FIG. 3)	catalepsy performance ([4]; alone, 3-30 mg/kg, PO, FIG. 4)
CN(C)C[C@@H]1CCCC[C@@]1(O)c1ccc(Cl)c(Cl)c1 (single isomer, unassigned) [Compound 2, cis-1-(3,4-dichlorophenyl)-2-((dimethylamino)methyl)cyclohexanol]	° (100-2500 (°))	° (100-2500 (°))	°°° (>5001 (°°°))	19	44	74	89	## (11-20 (##))	+++ (>41 (+++))	* (1-5 (*))	# (1-10 (#))	+++ (>41 (+++))	* (1-5 (*))	### (>21 (###))	+ (1-20 (+))	** (6-9 (**))	–	–	–	–
CNC[C@@H]1CCCC[C@@]1(O)c1ccc(Cl)c(Cl)c1 [Compound 4]	–	–	–	–	–	–	–	–	–	–	–	–	–	–	–	–	equal in magnitude and of longer duration	dose-dependently improved performance	dose-dependently improved performance	dose-dependently improved performance

Reference: US8669291B2, “Phenyl substituted cycloalkylamines as monoamine reuptake inhibitors” (Sunovion Pharmaceuticals Inc., priority 2007, dated 2014)
